Measurements reported in publication PMC9182007, “Statistical Methods in the Study of Protein Binding and Its Relationship to Drug Bioavailability in Breast Milk” (Molecules, 2022).
Where two headings read alike, the source gives them in different places.

Tests used:
[1] = RP TLC on non-impregnated control plates; assay type: physicochemical; details: Table S4, non-impregnated RP plate; acetonitrile/acetate buffer pH 7.4/methanol 60:20:20
[2] = NP TLC on non-impregnated control plates; assay type: physicochemical; details: for CNP (Rf, control NP plate): Table S3, non-impregnated NP plate, acetonitrile/acetate buffer pH 7.4/methanol 60:20:20; for CNP (Rf value from the non-impregnated NP plate, control): Table S8, external group
plasma protein = details: ref DrugBank [7], cited from earlier work
[3] = HPLC on immobilized artificial membrane column (HPLCIAM); assay type: physicochemical; details: for log k IAM: Table S5, IAM column, pH 7.4; for k IAM: Table S5, retention factor, IAM column, phosphate buffer pH 7.4/acetonitrile 80:20; for kIAM / log kIAM: Table S9, external group
[4] = target: human serum albumin (HSA) (Homo sapiens, UniProt P02768); details: pH 7.4
[5] = Table S6, external group (n = 38), given as fraction
[6] = Table S1, plasma protein binding given as fraction

human serum albumin (HSA), sequence (P02768 25-609): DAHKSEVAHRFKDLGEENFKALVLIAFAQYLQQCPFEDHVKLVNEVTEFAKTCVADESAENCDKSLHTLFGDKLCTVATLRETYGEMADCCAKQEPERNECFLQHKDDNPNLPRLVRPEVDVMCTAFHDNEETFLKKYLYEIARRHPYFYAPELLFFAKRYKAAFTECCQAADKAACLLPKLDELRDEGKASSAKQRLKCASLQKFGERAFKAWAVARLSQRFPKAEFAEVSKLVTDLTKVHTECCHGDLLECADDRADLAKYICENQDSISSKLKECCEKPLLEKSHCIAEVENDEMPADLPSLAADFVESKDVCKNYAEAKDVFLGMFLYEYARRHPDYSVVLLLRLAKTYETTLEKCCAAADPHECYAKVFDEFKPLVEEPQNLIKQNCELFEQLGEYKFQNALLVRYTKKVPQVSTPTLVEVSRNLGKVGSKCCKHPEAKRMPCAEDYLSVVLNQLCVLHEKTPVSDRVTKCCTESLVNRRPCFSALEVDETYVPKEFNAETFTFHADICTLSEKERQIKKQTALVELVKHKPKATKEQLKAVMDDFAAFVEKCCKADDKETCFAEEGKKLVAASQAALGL

| Compound | CRP (Rf, control RP plate) [1] | CNP (Rf, control NP plate) [2] | log k IAM [3] | k IAM [3] | also measured |
| --- | --- | --- | --- | --- | --- |
| COc1ccc2cc([C@H](C)C(=O)O)ccc2c1 [naproxen] | 0.88 | 0.92 | – | – | – |
| COCCCC/C(=N\OCCN)c1ccc(C(F)(F)F)cc1 [fluvoxamine] | – | – | – | – | CNP (Rf value from the non-impregnated NP plate, control) [2]: 0.34 |
| COc1cc2c(c(OC)c1OC)-c1ccc(OC)c(=O)cc1[C@@H](NC(C)=O)CC2 [colchicine] | – | – | – | – | PB (plasma protein; [5]): 0.39 |
| C[C@H]1O[C@@H](O[C@H]2[C@@H](O)C[C@H](O[C@H]3[C@@H](O)C[C@H](O[C@H]4CC[C@@]5(C)[C@H](CC[C@@H]6[C@@H]5C[C@@H](O)[C@]5(C)[C@@H](C7=CC(=O)OC7)CC[C@]65O)C4)O[C@@H]3C)O[C@@H]2C)C[C@H](O)[C@@H]1O [digoxin] | – | – | 0.57 | 3.69 | – |
| C=C[C@H]1C[N@@]2CC[C@H]1C[C@H]2[C@H](O)c1ccnc2ccc(OC)cc12 [quinine] | – | – | – | – | kIAM [3]: 3.06; log kIAM [3]: 0.49 |
| CCCCC(=O)N(Cc1ccc(-c2ccccc2-c2nnn[nH]2)cc1)[C@H](C(=O)O)C(C)C [valsartan] | 0.97 | 0.89 | -1.10 | 0.08 | PB (plasma protein; [6]): 0.955 |
| gentamycin | – | – | – | – | kIAM [3]: 4.25; log kIAM [3]: 0.63; CNP (Rf value from the non-impregnated NP plate, control) [2]: 0.96 |
| CC(C)c1c(C(=O)Nc2ccccc2)c(-c2ccccc2)c(-c2ccc(F)cc2)n1CC[C@@H](O)C[C@@H](O)CC(=O)O [atorvastatin] | 0.80 | – | – | – | – |
| O=C(O)c1cn(C2CC2)c2cc(N3CCNCC3)c(F)cc2c1=O [ciprofloxacin] | 0.38 | 0.11 | – | – | – |
| C[C@H]1COc2c(N3CCN(C)CC3)c(F)cc3c(=O)c(C(=O)O)cn1c23 [levofloxacin] | 0.27 | 0.17 | -0.04 | 0.90 | PB (plasma protein; [6]): 0.31 |
| C[C@H](CS)C(=O)N1CCC[C@H]1C(=O)O [captopril] | – | 0.77 | -2.19 | 0.01 | – |
| Clc1ccc2c(c1)CCc1cccnc1C2=C1CCNCC1 [desloratidine] | – | – | 1.70 | 50.45 | – |
| COc1cccc(C2(O)CCCCC2CN(C)C)c1 (stereo not drawn) [tramadol] | – | – | – | – | PB (plasma protein; [5]): 0.20 |
| CNCCC(Oc1ccc(C(F)(F)F)cc1)c1ccccc1 (stereo not drawn) [fluoxetine] | 0.54 | 0.68 | 1.82 | 66.64 | PB (plasma protein; [6]): 0.945 |
| CCC(C)(C)C(=O)O[C@H]1C[C@@H](C)C=C2C=C[C@H](C)[C@H](CC[C@@H]3C[C@@H](O)CC(=O)O3)[C@H]21 [simvastatin] | 0.66 | 0.19 | – | – | – |
| CCOC(=O)C1=C(COCCN)NC(C)=C(C(=O)OC)C1c1ccccc1Cl (stereo not drawn) [amlodipine] | 0.61 | – | 2.00 | 98.90 | – |
| O=C(O)COCCN1CCN([C@H](c2ccccc2)c2ccc(Cl)cc2)CC1 [levocetrizine] | – | – | 0.58 | 3.82 | – |
| Cn1c(=O)c2c(ncn2C)n(C)c1=O [caffeine] | – | 0.82 | -0.75 | 0.18 | – |
| Nc1cc(N2CCCCC2)nc(N)[n+]1[O-] [minoxidil] | – | – | – | – | kIAM [3]: 1.96; log kIAM [3]: 0.29; CNP (Rf value from the non-impregnated NP plate, control) [2]: 0.43; PB (plasma protein; [5]): 0.00 |
| CN(C)CCCN1c2ccccc2CCc2ccc(Cl)cc21 [clomipramine] | – | – | – | – | kIAM [3]: 3.05; log kIAM [3]: 0.48 |
| CN(C)CCC[C@@]1(c2ccc(F)cc2)OCc2cc(C#N)ccc21 [escitalopram] | 0.55 | 0.42 | 1.51 | 32.08 | PB (plasma protein; [6]): 0.56 |

| Compound | CRP (Rf, control RP plate) [1] | CNP (Rf, control NP plate) [2] | log k IAM [3] | k IAM [3] | also measured |
| --- | --- | --- | --- | --- | --- |
| CCCc1cc(=O)[nH]c(=S)[nH]1 [propylthiouracil] | – | – | – | – | kIAM [3]: 1.51; log kIAM [3]: 0.18; PB (plasma protein; [5]): 0.82 |
| Cc1cnc(NC(=O)C2=C(O)c3ccccc3S(=O)(=O)N2C)s1 [meloxicam] | – | – | -0.31 | 0.49 | – |
| Nc1nc2c(ncn2COCCO)c(=O)[nH]1 [aciclovir] | 0.99 | – | -1.04 | 0.09 | PB (plasma protein; [6]): 0.21 |
| CC(=O)CC(c1ccccc1)c1c(O)c2ccccc2oc1=O (stereo not drawn) [warfarin] | – | – | – | – | kIAM [3]: 2.76; log kIAM [3]: 0.44 |
| COc1cc2nc(N3CCN(C(=O)C4COc5ccccc5O4)CC3)nc(N)c2cc1OC (stereo not drawn) [doxazosin] | 0.75 | – | -0.66 | 0.22 | – |
| O=C1Nc2ccc(Cl)cc2C(c2ccccc2)=NC1O (stereo not drawn) [oxazepam] | – | – | 0.68 | 4.78 | – |
| CCN(CC)CCCC(C)Nc1ccnc2cc(Cl)ccc12 (stereo not drawn) [chloroquine] | – | – | – | – | log kIAM [3]: 0.49; PB (plasma protein; [5]): 0.55 |
| CC(=O)CC(c1ccc([N+](=O)[O-])cc1)c1c(O)c2ccccc2oc1=O (stereo not drawn) [acenocumarol] | – | – | -0.27 | 0.53 | – |
| CN(C)CCCC1(c2ccc(F)cc2)OCc2cc(C#N)ccc21 (stereo not drawn) [citalopram] | – | – | – | – | kIAM [3]: 3.14; log kIAM [3]: 0.50; PB (plasma protein; [5]): 0.80 |
| CCCNCC(O)COc1ccccc1C(=O)CCc1ccccc1 (stereo not drawn) [propafenone] | 0.56 | 0.57 | – | – | – |
| CN1C(=O)C(O)N=C(c2ccccc2)c2cc(Cl)ccc21 (stereo not drawn) [temazepam] | – | – | 0.83 | 6.74 | – |
| CCCCc1oc2ccccc2c1C(=O)c1cc(I)c(OCCN(CC)CC)c(I)c1 [amiodarone] | 0.33 | – | – | – | – |
| CC(C)(C(=O)O)c1ccc(C(O)CCCN2CCC(C(O)(c3ccccc3)c3ccccc3)CC2)cc1 (stereo not drawn) [fexofenadine] | 0.85 | 0.61 | – | – | – |
| CC(C)Cc1ccc(C(C)C(=O)O)cc1 (stereo not drawn) [ibuprofen] | – | – | -0.07 | 0.86 | – |
| CC1COc2c(N3CCN(C)CC3)c(F)cc3c(=O)c(C(=O)O)cn1c23 (stereo not drawn) [ofloxacin] | – | – | – | – | kIAM [3]: 3.07; log kIAM [3]: 0.49; CNP (Rf value from the non-impregnated NP plate, control) [2]: 0.24; PB (plasma protein; [5]): 0.32 |
| CC(C(=O)O)c1cccc(C(=O)c2ccccc2)c1 (stereo not drawn) [ketoprofen] | – | – | -0.71 | 0.20 | – |
| O=C(O)COC(=O)Cc1ccccc1Nc1c(Cl)cccc1Cl [aceclofenac] | – | 0.89 | 0.42 | 2.63 | k HSA [4]: 55.89 |
| NS(=O)(=O)c1cc2c(cc1Cl)NCNS2(=O)=O [hydrochlorotiazide] | – | – | – | – | kIAM [3]: 2.01; log kIAM [3]: 0.30 |
| CCN(CC)CC#CCOC(=O)C(O)(c1ccccc1)C1CCCCC1 (stereo not drawn) [oxybutinin] | 0.29 | 0.68 | 1.70 | 49.68 | – |
| Cc1nnc2n1-c1ccc(Cl)cc1C(c1ccccc1)=NC2 [alprazolam] | – | – | 0.50 | 3.14 | PB (plasma protein; [6]): 0.8 |
| CC(C)(O)c1ccccc1CC[C@@H](SCC1(CC(=O)O)CC1)c1cccc(/C=C/c2ccc3ccc(Cl)cc3n2)c1 [montelukast] | 0.70 | 0.95 | 2.00 | 99.10 | – |
